Reference: ChEMBL document CHEMBL3611993, “Design, synthesis and biological activities of novel oxazolo[4,5-g]quinazolin-2(1H)-one derivatives as EGFR inhibitors” (Eur J Med Chem, 2015)
The source made the active and inactive calls. No cut-off for these calls is given here.

Assays:
[1] = target: Epidermal growth factor receptor (Homo sapiens, UniProt P00533); assay: Inhibition of EGFR (unknown origin) assessed as incorporation of 33Pi after 1 hr by ELISA
[2] = tested on: Lewis lung carcinoma cell line; assay: Antitumor activity against mouse LLC cells allografted in SCID mouse assessed as inhibition of tumor growth at 100 mg/kg, po qd for 14 days; type: functional, organism-based
Mus musculus [3] = assay: Toxicity in mouse LLC cells allografted SCID mouse assessed as mortality at 100 mg/kg, po qd for 14 days; type: organism-based; conditions: in vivo, 336 h
KB = assay: Antiproliferative activity against human KB cells expressing EGFR and Src after 48 hrs by SRB assay; type: functional, cell-based
A498 = assay: Antiproliferative activity against human A498 cells expressing EGFR and Src after 48 hrs by SRB assay; type: functional, cell-based; conditions: A498, 48 h
Mus musculus [4] = assay: Toxicity in mouse LLC cells allografted SCID mouse assessed as change in body weight at 100 mg/kg, po qd for 14 days; type: organism-based; conditions: in vivo, 336 h
[5] = tested on: Lewis lung carcinoma cell line; assay: Antitumor activity against mouse LLC cells allografted in SCID mouse assessed as extension of survival period at 100 mg/kg, po qd for 14 days; type: functional, organism-based

Chain of Epidermal growth factor receptor (P00533 whole entry): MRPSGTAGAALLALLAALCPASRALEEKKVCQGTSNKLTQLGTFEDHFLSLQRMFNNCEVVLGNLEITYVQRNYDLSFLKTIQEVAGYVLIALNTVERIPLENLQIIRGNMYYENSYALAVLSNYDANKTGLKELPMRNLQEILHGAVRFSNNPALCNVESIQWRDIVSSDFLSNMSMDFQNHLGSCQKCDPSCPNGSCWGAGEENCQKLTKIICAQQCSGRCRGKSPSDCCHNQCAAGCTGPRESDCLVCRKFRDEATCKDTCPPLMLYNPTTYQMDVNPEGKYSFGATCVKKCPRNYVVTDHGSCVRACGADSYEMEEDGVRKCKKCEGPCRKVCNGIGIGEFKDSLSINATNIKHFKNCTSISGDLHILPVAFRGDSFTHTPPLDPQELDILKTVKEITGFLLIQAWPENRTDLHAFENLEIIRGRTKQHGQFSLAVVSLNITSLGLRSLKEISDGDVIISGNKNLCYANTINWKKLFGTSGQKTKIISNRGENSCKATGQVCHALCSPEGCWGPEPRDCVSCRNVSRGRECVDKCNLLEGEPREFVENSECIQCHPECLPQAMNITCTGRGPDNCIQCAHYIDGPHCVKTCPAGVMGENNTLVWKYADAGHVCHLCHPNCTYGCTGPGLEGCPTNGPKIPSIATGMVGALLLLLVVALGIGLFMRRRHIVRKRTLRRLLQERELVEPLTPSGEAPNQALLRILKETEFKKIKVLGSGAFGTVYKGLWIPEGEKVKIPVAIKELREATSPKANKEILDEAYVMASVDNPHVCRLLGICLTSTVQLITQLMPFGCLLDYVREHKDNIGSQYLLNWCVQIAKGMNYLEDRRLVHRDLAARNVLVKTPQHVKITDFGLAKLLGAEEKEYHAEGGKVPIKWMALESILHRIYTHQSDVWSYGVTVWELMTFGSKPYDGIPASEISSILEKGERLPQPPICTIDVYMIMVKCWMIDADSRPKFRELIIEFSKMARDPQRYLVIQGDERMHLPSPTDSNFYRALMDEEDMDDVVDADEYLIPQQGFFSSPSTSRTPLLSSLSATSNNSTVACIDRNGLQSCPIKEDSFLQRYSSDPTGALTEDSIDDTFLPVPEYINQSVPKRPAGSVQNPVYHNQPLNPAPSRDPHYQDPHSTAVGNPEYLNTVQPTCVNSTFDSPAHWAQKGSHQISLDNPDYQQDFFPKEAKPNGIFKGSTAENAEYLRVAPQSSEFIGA

Compound	IC50 [1]	IC50 (KB)	IC50 (A498)	also measured
C#Cc1cccc(Nc2ncnc3cc(OCCOC)c(OCCOC)cc23)c1 [ERLOTINIB]	–	–	–	growth inhibition (GI) [2]: Active; Activity (Mus musculus [3]): Non-toxic
CCOC(=O)CCCn1c(=O)oc2cc3ncnc(Nc4ccc(OCC)cc4)c3cc21	> 10000 nM	–	–	–
CCOC(=O)CCCn1c(=O)oc2cc3ncnc(Nc4ccc(C(C)(C)C)cc4)c3cc21	> 10000 nM	–	–	–
CCOC(=O)CCCn1c(=O)oc2cc3ncnc(Nc4ccc(OCc5ccc(Cl)cc5)c(Cl)c4)c3cc21	53 nM	–	–	–
CCOC(=O)CCCn1c(=O)oc2cc3ncnc(NCc4ccccc4)c3cc21	> 10000 nM	–	–	–
CCOC(=O)CCCn1c(=O)oc2cc3ncnc(Nc4ccccc4)c3cc21	> 10000 nM	–	–	–
CCOC(=O)CCCn1c(=O)oc2cc3ncnc(N[C@@H](C)c4ccccc4)c3cc21	> 10000 nM	–	–	–
CCOC(=O)CCCn1c(=O)oc2cc3ncnc(Nc4ccc(S(N)(=O)=O)cc4)c3cc21	> 10000 nM	18.7 µM	8 µM	–
CCOC(=O)CCCn1c(=O)oc2cc3ncnc(Nc4ccc(OCc5nccc(OCC(F)(F)F)c5C)cc4)c3cc21	780 nM	–	–	–
CCOC(=O)CCCn1c(=O)oc2cc3ncnc(Nc4ccc(O)cc4)c3cc21	20 nM	11.1 µM	15.2 µM	–
CCOC(=O)CCCn1c(=O)oc2cc3ncnc(Nc4ccc(Cl)cc4)c3cc21	1200 nM	–	–	–
CCOC(=O)CCCn1c(=O)oc2cc3ncnc(Nc4ccc(OCc5ccccn5)cc4)c3cc21	–	16.6 µM	47 µM	–
CCOC(=O)CCCn1c(=O)oc2cc3ncnc(Nc4cccc(O)c4)c3cc21	8.7 nM	3.7 µM	7.6 µM	growth inhibition (GI) [2]: Active; Activity (Mus musculus [4]): Toxic; Activity [5]: inactive; Activity (Mus musculus [3]): Non-toxic
CCOC(=O)CCCn1c(=O)oc2cc3ncnc(Nc4cc(C(=O)OCC)ccc4O)c3cc21	7.3 nM	19.5 µM	61.6 µM	–
CCOC(=O)CCCn1c(=O)oc2cc3ncnc(Nc4ccc(C(=O)OCc5ccc(Cl)cc5)cc4)c3cc21	–	5.5 µM	8.7 µM	–
CCOC(=O)CCCn1c(=O)oc2cc3ncnc(N[C@H](C)c4ccccc4)c3cc21	> 10000 nM	–	–	–
CCOC(=O)CCCn1c(=O)oc2cc3ncnc(Nc4ccc(OCc5ccccc5)c(Cl)c4)c3cc21	> 10000 nM	–	–	–
C#Cc1cccc(Nc2ncnc3cc4oc(=O)n(CCCC(=O)OCC)c4cc23)c1	5700 nM	–	–	–
CCOC(=O)CCCn1c(=O)oc2cc3ncnc(Nc4ccc(C(=O)OCc5ccc(C#N)cc5)cc4)c3cc21	> 10000 nM	–	–	–

More lines, main results first:

IC50 [1]	IC50 (KB)	Compound	IC50 (A498)	also measured
> 10000 nM	–	COCCn1c(=O)oc2cc3ncnc(Nc4ccc(S(N)(=O)=O)cc4)c3cc21	–	–
340 nM	–	COCCn1c(=O)oc2cc3ncnc(Nc4ccc(OCc5nccc(OCC(F)(F)F)c5C)cc4)c3cc21	–	–
5100 nM	11.7 µM	COCCn1c(=O)oc2cc3ncnc(Nc4ccc(OC)cc4)c3cc21	33.5 µM	–
> 10000 nM	–	COCCn1c(=O)oc2cc3ncnc(Nc4cccc(OC(C)C)c4)c3cc21	–	–
1300 nM	6.1 µM	COCCn1c(=O)oc2cc3ncnc(Nc4ccc(OCc5ccc(Cl)cc5)c(Cl)c4)c3cc21	6.2 µM	–
190 nM	–	C#Cc1cccc(Nc2ncnc3cc4oc(=O)n(CCOC)c4cc23)c1	–	–
560 nM	–	COCCn1c(=O)oc2cc3ncnc(Nc4cccc(C(C)=O)c4)c3cc21	–	–
5500 nM	–	COCCn1c(=O)oc2cc3ncnc(Nc4ccc(OC)c(OC)c4)c3cc21	–	–
1500 nM	–	CCOC(=O)CCCn1c(=O)oc2cc3ncnc(Nc4cc(C)cc(C)c4)c3cc21	–	–
> 10000 nM	–	COCCn1c(=O)oc2cc3ncnc(Nc4ccc(C(C)(C)C)cc4)c3cc21	–	–
26 nM	1.1 µM	COCCn1c(=O)oc2cc3ncnc(Nc4ccc(F)c(F)c4)c3cc21	17.6 µM	–
140 nM	17.9 µM	CCOC(=O)CCCn1c(=O)oc2cc3ncnc(Nc4ccc(F)c(F)c4)c3cc21	36.4 µM	–
130 nM	38.4 µM	CCOC(=O)CCCn1c(=O)oc2cc3ncnc(Nc4ccc5[nH]ncc5c4)c3cc21	26.8 µM	–
160 nM	18.6 µM	CCOC(=O)CCCn1c(=O)oc2cc3ncnc(Nc4ccc(OC(C)C)cc4)c3cc21	41.1 µM	–
7800 nM	–	CCOC(=O)CCCn1c(=O)oc2cc3ncnc(Nc4ccc(F)c(Cl)c4)c3cc21	–	–
> 10000 nM	–	COCCn1c(=O)oc2cc3ncnc(Nc4ccc(Cl)cc4)c3cc21	–	–
> 10000 nM	–	CCOC(=O)CCCn1c(=O)oc2cc3ncnc(Nc4ccc(OCc5ccc(OC)cc5)c(Cl)c4)c3cc21	–	–
> 10000 nM	–	CCOC(=O)CCCn1c(=O)oc2cc3ncnc(Nc4ccc(C)cc4)c3cc21	–	–
470 nM	–	COCCn1c(=O)oc2cc3ncnc(Nc4ccc(F)c(Cl)c4)c3cc21	–	–
440 nM	6.3 µM	CCOC(=O)c1ccc(O)c(Nc2ncnc3cc4oc(=O)n(CCOC)c4cc23)c1	17.1 µM	–
> 10000 nM	–	CCOC(=O)CCCn1c(=O)oc2cc3ncnc(Nc4ccc(OC)c(OC)c4)c3cc21	–	–
